Here are results for one molecule from US7157099B2, “Sustained release pharmaceutical compositions for the parenteral administration of hydrophilic compounds” (Italfarmaco S.p.A., priority 2000, dated 2007).

The conditions of data set [1]: male rats, 6 mg/rat of microemulsion of Example 11.
Method: (§1) Plasma samples were taken before the administration of the compound and 0.5 hours, 24 hours, 4, 6 and 8 days after treatment.
(§2) Octreotide was extracted from plasma and analyzed with LC-MS-MS apparatus vs. a calibration curve.
The next data set in a line: in vivo. The following applies: male, rat, plasma, 6 mg/rat.

Method for in vivo: as §1, §2

On to `C[C@@H](O)[C@@H]1NC(=O)[C@H](CCCCN)NC(=O)[C@@H](Cc2c[nH]c3ccccc23)NC(=O)[C@H](Cc2ccccc2)NC(=O)[C@@H](NC(=O)[C@H](N)Cc2ccccc2)CSSC[C@@H](C(=O)N[C@H](CO)[C@@H](C)O)NC1=O` [Octreotide], for which the “Time until which significant Octreotide plasma levels were found after treatment” value in data set [1] is 8 days. In the data set “in vivo”, this molecule gave a level at 0.5 h of 539 ng/mL, a level at 24 h of 40.2 ng/mL, a level at 96 h of 62.5 ng/mL and a level at 144 h of 4.5 ng/mL. The same molecule displayed a level at 192 h in the data set “in vivo” of 7.6 ng/mL.
